Measurements as given in paper PMC6274259, “New 3-Cyano-2-Substituted Pyridines Induce Apoptosis in MCF 7 Breast Cancer Cells” (Molecules, 2016).

What was measured:
[1] = tested on: MDA-MB-231 human breast adenocarcinoma cell line; assay: WST-1 cell viability assay, MDA-MB-231; format: cell-based; settings: Homo sapiens, MDA-MB-231; WST-1, 24 h treatment, mean ± S.D of three independent experiments
Source text: (§1) The synthesized compounds were screened for their cytotoxicity on five cancer cell lines, namely SK-OV-3, MCF-7, MDA-MB-231, HCT-116 and RKO, using a WST colorimetric assay. The assay principle is based upon the reduction of the tetrazolium salt WST-1 to formazan by cellular mitochondrial dehydrogenases present in viable cells. […] Among the latter compounds the benzohydrazide derivative 9a emerged with the lowest IC50 in this study against MCF-7 cells compared to 5-FU. […] Based on the fact that 9a had less cytotoxic effects on normal breast epithelial cells it was subjected to further studies.
(§2) The following cell lines were used for the screening stage, obtained from the American Type Culture Collection (ATCC, Manassas, VA, USA); SK-OV-3 (HTB-77), MCF-12A (ATCC CRL-10782), MDA-MB-231 (ATCC HTB-26), HCT-116 (CCL-247), RKO (CRL-2577) and sub-culturing of the above cell lines was conducted in 75 cm^2 flasks. The old culture media was removed and discarded after assessing the confluency of the cells and the cells were rinsed with 2–3 mL diluted trypsin (1×) (trypsin/EDTA solution consists of 0.025% trypsin and 0.01% EDTA in PBS), for about 5 minutes for complete detachment. The cells were observed under the inverted microscope until the cell layer is completely dispersed. 75 cm^2 flasks were prepared and 16 mL of DMEM media for SK-OV-3, MCF-7, MDA-MB-231, (DMEM 4500 mg glucose) and RPMI media for HCT-116 were added to each flask. The cells were aspirated gently and added to the flasks. DMEM 4500 mg/L high glucose with 10% FBS, 5% streptomycin and penicillin, RPMI 1640 (prepared by adding 5% heat-inactivated FCS and 2 mm glutamine) were used. DMEM was also used for MCF-12A cells with the addition of human epidermal growth factor 20 ng/mL, insulin 0.01 mg/mL and hydrocortisone 500 ng/mL.
(§3) The synthesized compounds were screened for their anti-proliferative activity using 5-FU (F6627-1G, Sigma-Aldrich, St. Louis, MO, USA) as reference compound. A concentration of 0.4% DMSO was used in all experiment after ensuring 100% viability of the cell lines with this concentration. A 25 mM stock concentration of all compounds was prepared for further studies and analysis.
(§4) Cells were trypsinized and placed in a 15 mL Falcon tube, the cells were centrifuged for 3 min at 1000 rpm. Trypsin is decanted using a sterile pipette and then the pellet is loosened by flicking the tube few times then 5–10 mL warm DMEM or RPMI were added to the Falcon tube and the pellet is resuspended. Cell count was done next by taking 10 μL of the suspension into the cell counting slide and read under 10× cells/mL. A cell stock of 50,000 cells/mL was prepared for the 96 wells. Cells (100 μL) were added to each well using a sterile pipette each time to ensure consistency. The experiment was planned ahead of time using excel sheet, 3–6 wells were reserved as blank media while 3–6 wells for vehicle (DMSO). The plate was incubated for 24 h for compound treatment step. DMEM media was used to prepare different dilutions of the compounds. The old DMEM media was removed from the wells using sterile pipette in the hood and the media was replaced with 100 μL media with each compound. The plate was incubated for 24 h. After 24 h incubation, WST-1 reagent (Sigma) was added to each well and then the plate was incubated for 1 h before measuring the absorbance using VICTOR™ Multilabel Plate Reader (Perkin Elmer, Beaconsfield, UK). The absorbance of the colored solution can be quantified by measuring at a certain wavelength (usually between 500–600 nm), in this experiment the first reading was conducted at 540 nm and the second reading at 690 nm for the reference wavelength. The percentage of cell viability was determined as the ratio of the absorbance of the sample vs the control. Three independent experiments were performed. […] 5-Florouracil (Sigma-Aldrich, F6627-1G) was used as reference standard.

[2] = tested on: HCT-116 human colon carcinoma cell line; assay: WST-1 cell viability assay, HCT-116; format: cell-based; settings: Homo sapiens, HCT-116; WST-1, 24 h treatment, mean ± S.D of three independent experiments
Source text: as §1, §2, §3, §4

[3] = tested on: RKO human colon carcinoma cell line; assay: WST-1 cell viability assay, RKO; format: cell-based; settings: Homo sapiens, Colon carcinoma cell; WST-1, 24 h treatment, mean ± S.D of three independent experiments
Source text: as §1, §2, §3, §4

[4] = tested on: MCF-7 human breast adenocarcinoma cell line; assay: WST-1 cell viability assay, MCF-7; format: cell-based; settings: Homo sapiens, MCF7, 24 h, WST-1, 24 h treatment, mean ± S.D of three independent experiments
Source text: as §1, §2, §3, §4

[5] = tested on: SK-OV-3 human ovarian carcinoma cell line; assay: WST-1 cell viability assay, SK-OV-3; format: cell-based; settings: Homo sapiens, SK-OV-3; WST-1, 24 h treatment, mean ± S.D of three independent experiments
Source text: as §1, §2, §3, §4

IC50 [1] [µM]	IC50 [2] [µM]	IC50 [3] [µM]	IC50 [4] [µM]	melting point [°C]	IC50 [5] [µM]	Compound
> 50	33.9 ± 0.87	> 50	> 50	161 to 163	26.2 ± 0.95	COc1ccc(-c2cc(-c3ccc(OC)c(OC)c3)c(C#N)c(OCC(=O)n3nc(C)cc3C)n2)cc1OC [Compound 11, 4,6-Bis(3,4-dimethoxyphenyl)-2-(2-(3,5-dimethyl-1H-pyrazol-1-yl)-2-oxoethoxy)pyridine-3-carbonitrile]
> 50	40.4 ± 1.76	> 50	> 50	189 to 190	20.3 ± 1.72	COc1ccc(-c2cc(-c3ccc(OC)c(OC)c3)c(C#N)c(OCC(=O)N3N=C(C)CC3=O)n2)cc1OC [Compound 12, 4,6-bis(3,4-Dimethoxyphenyl)-2-(2-(3-methyl-5-oxo-4,5-dihydro-1H-pyrazol-1-yl)-2-oxoethoxy)pyridine-3-carbonitrile]
> 50	36.3 ± 1.71	> 50	> 50	184 to 186	> 50	COC(=O)c1c(SC)nn(C(=O)COc2nc(-c3ccc(OC)c(OC)c3)cc(-c3ccc(OC)c(OC)c3)c2C#N)c1N [Compound 13a, Methyl 5-amino-1-{[(3-cyano-4,6-bis(3,4-dimethoxyphenyl)pyridin-2-yl)oxy]acetyl}-3-(methylsulfanyl)-1H-pyrazole-4-carboxylate]
> 50	30.1 ± 0.76	> 50	> 50	202 to 204	> 50	COc1ccc(-c2cc(-c3ccc(OC)c(OC)c3)c(C#N)c(OCC(=O)n3nc(SC)c(C#N)c3N)n2)cc1OC [Compound 13b, 2-{2-[5-Amino-4-cyano-3-(methylsulfanyl)-1H-pyrazol-1-yl]-2-oxoethoxy}-4,6-bis(3,4-dimethoxyphenyl)-pyridine-3-carbonitrile]
